Patent US11091482B2, “Isoxazolyl-carbonyloxy azabicyclo[3.2.1]octanyl compounds as FXR activators” (ARDELYX, INC., priority 2016, dated 2021)

Assays:
[1] = target: ligand binding domain of human FXR (Homo sapiens (Human), UniProt Q96RI1); assay: FXR ligand binding assay (LanthaScreen FRET); parameters: Activity, %: concentration or dose not given beside the values; details: Human FXR Binding (FRET);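 also: TR-FRET coactivator recruitment: ligand-induced binding of fluorescein-labelled SRC2-2 peptide to GST-tagged FXR LBD detected via Tb anti-GST antibody, serial compound dilutions, 3-parameter logistic fit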
Sequence of ligand binding domain of human FXR (Q96RI1 262-486): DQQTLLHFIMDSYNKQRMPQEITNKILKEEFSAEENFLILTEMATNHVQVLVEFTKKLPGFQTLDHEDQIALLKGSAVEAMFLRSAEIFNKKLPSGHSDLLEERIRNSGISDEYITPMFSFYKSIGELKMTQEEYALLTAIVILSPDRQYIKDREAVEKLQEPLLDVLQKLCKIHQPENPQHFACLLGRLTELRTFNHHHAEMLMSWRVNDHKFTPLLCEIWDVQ

[2] = target: human Farnesoid X receptor ligand-binding domain/Gal4 DNA binding domain chimera (Homo sapiens (Human), UniProt Q96RI1); assay: Cell-based FXR beta-lactamase reporter assay (FXR-UAS-bla HEK 293T cells); details: Human FXR Cell (Gal4)
Sequence of human Farnesoid X receptor ligand-binding domain/Gal4 DNA binding domain chimera (Q96RI1 262-486, change not shown): as the sequence (Q96RI1 262-486) above
Procedure, shortened: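 Stable FXR-UAS-bla HEK 293T cells in phenol red-free DMEM with 2% charcoal-stripped FBS were exposed to 3-fold serial dilutions of compound. Beta-lactamase reporter activity was read by CCF4 FRET loss, exciting at 409 nm with blue emission at 447 nm. The FRET change versus concentration was fit to a 3-parameter logistic equation.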

[3] = system: fibroblast growth factor 19 (FGF19) secretion in human ileum; assay: Human ileum APECCS (FGF19 secretion); type: cell-based
[4] = system: C57BL/6 male mice fed a Western diet; assay: Western diet study; type: in vivo, C57BL/6 mice
Experimental: (§1) Six-week-old C57BL/6 male mice were fed a Western diet (WD) (62% fat/0.2% cholesterol). […] An additional control group (lean) was fed a standard rodent chow throughout the study. Body weight measurements and serum samples (tail bleed) were taken weekly. After 6 weeks of treatment, all animals were sacrificed and hepatosteatosis-related endpoints and other liver markers were measured.
(§2) Total RNA from mouse tissues was isolated and used for library preparation.

Western diet study = type: in vivo, C57BL/6 mice; details: male, C57BL/6, mouse, serum; 30 mg/kg q.d., after 2 weeks of treatment, 2 hours after the last dose; read-out: serum FXR agonist concentration
Experimental: as §1, §2

FXR target genes = assay: Single-dose FXR target gene expression in mice fed a standard diet; type: in vivo, C57BL/6 mice; details: single dose 30 mg/kg
Excerpt: as §2

[5] = Western diet, 6 weeks of treatment
[6] = Western diet, 6 weeks, I-2 30 mg/kg q.d. or b.i.d., Px-102 30 mg/kg q.d., FGF15-AAV single IV dose

Activity, % ([1]; relative to GW4064): 90 ± 15%
EC50 ([1]; value ± spread, read-out: pEC50 (converted)): 0.01 µM
Activity, % ([2]; relative to GW4064): 108%
EC50 ([2]; read-out: pEC50 (converted)): 0.158 µM
concentration at 2 h (Western diet study): 475 ng/mL
SMILES: O=C(O)c1ccc([C@H]2C[C@@H]2c2ccc(OCc3c(-c4c(Cl)cccc4Cl)noc3C3CC3)cc2Cl)cc1 [Px-102]
EC50 ([3]; Fibroblast): 0.331 µM
Activity, % ([3]; relative to GW4064): 96.5 ± 25%
body weight [4, 5]: did not affect
liver weight [4, 5]: did not affect
liver cholesterol [4, 6]: normalized
liver triglycerides [4, 6]: normalized
macrovesicular steatosis [4, 6]: reduced
serum cholesterol [4, 6]: reduced
Cyp7a1 gene expression ([4]; liver, Western diet): downregulated
serum FGF15 concentration ([4]; mice fed a WD): further increased
expression of selected FXR target genes in the liver (FXR target genes): activated
expression of FXR target genes, including FGF15, in the ileum (FXR target genes; 6 h after dosing): activated
